This note sets out measurements from patent US12497365B2, “4-pyridinyl formamide compound or derivative thereof, preparation method therefor, herbicidal composition and use thereof” (Qingdao Kingagroot Chemical Compound Co., Ltd., priority 2019, dated 2025).

Common to all, as to assay: Weeding effect in post-emergence stage
Holding throughout (type): in vivo
What all share (conditions): active ingredient 2000 g/ha, 3 weeks after application, fresh weight control rate

Test [1] deals with Amaranthus retroflexus L. A digest of the protocol:
(§1)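 Weeds sown in soil-filled pots under 0.5-2 cm cover were grown in a greenhouse and sprayed at the 2-3 leaf stage, 2 weeks after sowing. Compounds in acetone with Tween 80 and 1.5 liter/ha methyl oleate concentrate were applied at 2000, 1000, 500, 250 or 125 g/ha. Fresh weight control rate was scored after 3 weeks.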

A further test has as its system Chenopodium album. A digest of the protocol:
as §1

The subject of a further test is Abutilon theophrasti. A digest of the protocol:
as §1

Another test relates to Descurainia sophia. A digest of the protocol:
as §1

For `Cn1nnnc1NC(=O)c1ccnc(-c2cnn(Cc3ccccc3)c2)c1Cl` [Compound 1-175], in test [1], the “Weeding effect, activity level (growth control rate), Amaranthus retroflexus L.” value (shortened to “Weeding effect … Amaranthus retroflexus L.”) was 5 (Level 5: growth control rate is above 85%). In addition, the “Weeding effect, activity level (growth control rate), Chenopodium album” value (from here on “Weeding effect … Chenopodium album”) with Chenopodium album is 5 (Level 5: growth control rate is above 85%). Moreover, the “Weeding effect, activity level (growth control rate), Abutilon theophrasti” value (“Weeding effect … Abutilon theophrasti” for short) in the test with Abutilon theophrasti is reported as 5 (Level 5: growth control rate is above 85%). Also, the “Weeding effect, activity level (growth control rate), Descurainia sophia” value (“Weeding effect … Descurainia sophia” below) in the test on Descurainia sophia is listed as 5 (Level 5: growth control rate is above 85%).
On to `CCOC(C)n1cc(-c2nccc(C(=O)Nc3nnnn3C)c2Cl)cn1` (stereo not shown) [Compound 1-176], for which the “Weeding effect … Amaranthus retroflexus L.” value in test [1] is recorded as 5 (Level 5: growth control rate is above 85%). For the same molecule, in the test on Chenopodium album, the “Weeding effect … Chenopodium album” value is given as 5 (Level 5: growth control rate is above 85%). Also, the “Weeding effect … Abutilon theophrasti” value with Abutilon theophrasti is 5 (Level 5: growth control rate is above 85%). Besides, in the test with Descurainia sophia, the “Weeding effect … Descurainia sophia” value is listed as 5 (Level 5: growth control rate is above 85%).
Consider `Cn1nnnc1NC(=O)c1ccnc(-c2ccn[nH]2)c1Cl` [Compound 1-177], for which, in test [1], the “Weeding effect … Amaranthus retroflexus L.” value is recorded as 5 (Level 5: growth control rate is above 85%). In addition, the “Weeding effect … Chenopodium album” value in the test on Chenopodium album is reported as 5 (Level 5: growth control rate is above 85%). Besides, the “Weeding effect … Abutilon theophrasti” value with Abutilon theophrasti is listed as 5 (Level 5: growth control rate is above 85%). In the test on Descurainia sophia, the “Weeding effect … Descurainia sophia” value was 5 (Level 5: growth control rate is above 85%).
For the molecule `Cn1nccc1-c1nccc(C(=O)Nc2nnnn2C)c1Cl` [Compound 1-178], the “Weeding effect … Amaranthus retroflexus L.” value in test [1] is listed as 5 (Level 5: growth control rate is above 85%). Besides, the “Weeding effect … Chenopodium album” value in the test with Chenopodium album is recorded as 5 (Level 5: growth control rate is above 85%). The “Weeding effect … Abutilon theophrasti” value in the test on Abutilon theophrasti was 5 (Level 5: growth control rate is above 85%). The “Weeding effect … Descurainia sophia” value in the test on Descurainia sophia was 5 (Level 5: growth control rate is above 85%).
For `Cc1cc(-c2nccc(C(=O)Nc3nnnn3C)c2Cl)n(C)n1` [Compound 1-179], in test [1], the “Weeding effect … Amaranthus retroflexus L.” value is 5 (Level 5: growth control rate is above 85%). In the test on Chenopodium album, the “Weeding effect … Chenopodium album” value is on record as 5 (Level 5: growth control rate is above 85%). For the same molecule, in the test on Abutilon theophrasti, the “Weeding effect … Abutilon theophrasti” value is listed as 5 (Level 5: growth control rate is above 85%). Also, the “Weeding effect … Descurainia sophia” value with Descurainia sophia is 5 (Level 5: growth control rate is above 85%).
For the molecule `Cn1nc(C(F)(F)F)cc1-c1nccc(C(=O)Nc2nnnn2C)c1Cl` [Compound 1-180], in test [1], the “Weeding effect … Amaranthus retroflexus L.” value is 5 (Level 5: growth control rate is above 85%). The “Weeding effect … Chenopodium album” value in the test on Chenopodium album is given as 5 (Level 5: growth control rate is above 85%). Besides, the “Weeding effect … Abutilon theophrasti” value in the test with Abutilon theophrasti was 5 (Level 5: growth control rate is above 85%). Also, in the test with Descurainia sophia, the “Weeding effect … Descurainia sophia” value is recorded as 5 (Level 5: growth control rate is above 85%).
Turning to `Cn1nnnc1NC(=O)c1ccnc(-c2ccnn2C(F)F)c1Cl` [Compound 1-181], the “Weeding effect … Amaranthus retroflexus L.” value in test [1] is given as 5 (Level 5: growth control rate is above 85%). In the test with Chenopodium album, the “Weeding effect … Chenopodium album” value was 5 (Level 5: growth control rate is above 85%). Moreover, the “Weeding effect … Abutilon theophrasti” value with Abutilon theophrasti is 5 (Level 5: growth control rate is above 85%). The “Weeding effect … Descurainia sophia” value in the test with Descurainia sophia is 5 (Level 5: growth control rate is above 85%).
Consider `Cn1nnnc1NC(=O)c1ccnc(-c2ccnn2C2CCCCO2)c1Cl` (stereo not shown) [Compound 1-182], for which, in test [1], the “Weeding effect … Amaranthus retroflexus L.” value was 5 (Level 5: growth control rate is above 85%). For the same molecule, in the test with Chenopodium album, the “Weeding effect … Chenopodium album” value is 5 (Level 5: growth control rate is above 85%). In addition, the “Weeding effect … Abutilon theophrasti” value with Abutilon theophrasti is listed as 5 (Level 5: growth control rate is above 85%). In the test with Descurainia sophia, the “Weeding effect … Descurainia sophia” value is 5 (Level 5: growth control rate is above 85%).
With `Cn1nnnc1NC(=O)c1ccnc(-c2ccoc2)c1Cl` [Compound 1-183], the “Weeding effect … Amaranthus retroflexus L.” value in test [1] is listed as 5 (Level 5: growth control rate is above 85%). Also, the “Weeding effect … Chenopodium album” value with Chenopodium album is on record as 5 (Level 5: growth control rate is above 85%). In addition, the “Weeding effect … Abutilon theophrasti” value in the test on Abutilon theophrasti was 5 (Level 5: growth control rate is above 85%). Also, the “Weeding effect … Descurainia sophia” value with Descurainia sophia was 5 (Level 5: growth control rate is above 85%).
With `Cn1nnnc1NC(=O)c1ccnc(-c2ccco2)c1Cl` [Compound 1-184], in test [1], the “Weeding effect … Amaranthus retroflexus L.” value is given as 5 (Level 5: growth control rate is above 85%). The “Weeding effect … Chenopodium album” value in the test on Chenopodium album is 5 (Level 5: growth control rate is above 85%). Further, the “Weeding effect … Abutilon theophrasti” value with Abutilon theophrasti is on record as 5 (Level 5: growth control rate is above 85%). Besides, the “Weeding effect … Descurainia sophia” value with Descurainia sophia is reported as 5 (Level 5: growth control rate is above 85%).
As for `Cn1nnnc1NC(=O)c1ccnc(-c2ccc(C=O)o2)c1Cl` [Compound 1-185], in test [1], the “Weeding effect … Amaranthus retroflexus L.” value was 5 (Level 5: growth control rate is above 85%). Further, in the test with Chenopodium album, the “Weeding effect … Chenopodium album” value is on record as 5 (Level 5: growth control rate is above 85%). Besides, the “Weeding effect … Abutilon theophrasti” value with Abutilon theophrasti is given as 5 (Level 5: growth control rate is above 85%). Also, the “Weeding effect … Descurainia sophia” value with Descurainia sophia is given as 5 (Level 5: growth control rate is above 85%).
Turning to `Cn1nnnc1NC(=O)c1ccnc(-c2cccs2)c1Cl` [Compound 1-186], the “Weeding effect … Amaranthus retroflexus L.” value in test [1] is listed as 5 (Level 5: growth control rate is above 85%). The “Weeding effect … Chenopodium album” value with Chenopodium album was 5 (Level 5: growth control rate is above 85%). For the same molecule, the “Weeding effect … Abutilon theophrasti” value in the test with Abutilon theophrasti is listed as 5 (Level 5: growth control rate is above 85%). The “Weeding effect … Descurainia sophia” value in the test on Descurainia sophia is reported as 5 (Level 5: growth control rate is above 85%).
Consider `Cc1ccc(-c2nccc(C(=O)Nc3nnnn3C)c2Cl)s1` [Compound 1-187], for which the “Weeding effect … Amaranthus retroflexus L.” value in test [1] is given as 5 (Level 5: growth control rate is above 85%). The “Weeding effect … Chenopodium album” value with Chenopodium album is 5 (Level 5: growth control rate is above 85%). Further, the “Weeding effect … Abutilon theophrasti” value with Abutilon theophrasti is recorded as 5 (Level 5: growth control rate is above 85%). In the test on Descurainia sophia, the “Weeding effect … Descurainia sophia” value is recorded as 5 (Level 5: growth control rate is above 85%).
Regarding `Cc1csc(-c2nccc(C(=O)Nc3nnnn3C)c2Cl)c1` [Compound 1-188], the “Weeding effect … Amaranthus retroflexus L.” value in test [1] is reported as 5 (Level 5: growth control rate is above 85%). Moreover, the “Weeding effect … Chenopodium album” value in the test with Chenopodium album was 5 (Level 5: growth control rate is above 85%). In the test on Abutilon theophrasti, the “Weeding effect … Abutilon theophrasti” value is on record as 5 (Level 5: growth control rate is above 85%). In the test with Descurainia sophia, the “Weeding effect … Descurainia sophia” value is 5 (Level 5: growth control rate is above 85%).
Consider `Cn1nnnc1NC(=O)c1ccnc(-c2ccc(Cl)s2)c1Cl` [Compound 1-189], for which, in test [1], the “Weeding effect … Amaranthus retroflexus L.” value is 5 (Level 5: growth control rate is above 85%). The “Weeding effect … Chenopodium album” value in the test with Chenopodium album is on record as 5 (Level 5: growth control rate is above 85%). The “Weeding effect … Abutilon theophrasti” value with Abutilon theophrasti was 5 (Level 5: growth control rate is above 85%). The “Weeding effect … Descurainia sophia” value with Descurainia sophia is given as 5 (Level 5: growth control rate is above 85%).
With `Cn1nnnc1NC(=O)c1ccnc(-c2ccc(C=O)s2)c1Cl` [Compound 1-190], in test [1], the “Weeding effect … Amaranthus retroflexus L.” value was 5 (Level 5: growth control rate is above 85%). Moreover, the “Weeding effect … Chenopodium album” value in the test on Chenopodium album was 5 (Level 5: growth control rate is above 85%). For the same molecule, in the test with Abutilon theophrasti, the “Weeding effect … Abutilon theophrasti” value is listed as 5 (Level 5: growth control rate is above 85%). Further, the “Weeding effect … Descurainia sophia” value in the test on Descurainia sophia is 5 (Level 5: growth control rate is above 85%).
For the molecule `CC(=O)c1ccc(-c2nccc(C(=O)Nc3nnnn3C)c2Cl)s1` [Compound 1-191], in test [1], the “Weeding effect … Amaranthus retroflexus L.” value is 5 (Level 5: growth control rate is above 85%). The “Weeding effect … Chenopodium album” value in the test with Chenopodium album is 5 (Level 5: growth control rate is above 85%). In addition, the “Weeding effect … Abutilon theophrasti” value in the test with Abutilon theophrasti is 5 (Level 5: growth control rate is above 85%). In addition, in the test on Descurainia sophia, the “Weeding effect … Descurainia sophia” value is 5 (Level 5: growth control rate is above 85%).
With `Cn1nnnc1NC(=O)c1ccnc(-c2ccc(C#N)s2)c1Cl` [Compound 1-192], the “Weeding effect … Amaranthus retroflexus L.” value in test [1] is listed as 5 (Level 5: growth control rate is above 85%). The “Weeding effect … Chenopodium album” value in the test with Chenopodium album was 5 (Level 5: growth control rate is above 85%). Further, the “Weeding effect … Abutilon theophrasti” value with Abutilon theophrasti is recorded as 5 (Level 5: growth control rate is above 85%). Further, the “Weeding effect … Descurainia sophia” value in the test on Descurainia sophia is on record as 5 (Level 5: growth control rate is above 85%).
With `Cn1nnnc1NC(=O)c1ccnc(-c2cnoc2)c1Cl` [Compound 1-193], the “Weeding effect … Amaranthus retroflexus L.” value in test [1] is 5 (Level 5: growth control rate is above 85%). Moreover, in the test on Chenopodium album, the “Weeding effect … Chenopodium album” value is reported as 5 (Level 5: growth control rate is above 85%). Also, in the test with Abutilon theophrasti, the “Weeding effect … Abutilon theophrasti” value is recorded as 5 (Level 5: growth control rate is above 85%). Further, in the test on Descurainia sophia, the “Weeding effect … Descurainia sophia” value is reported as 5 (Level 5: growth control rate is above 85%).
